Like-named read-outs stand apart in the source and are kept apart here.
Tests used:
[1] = tested on: Pigment producing cells derived from a mammalian melanoma; test: In vitro melanocyte cell culture: melanin production (absorbance at 540 nm of melanin released into the medium); assay type: cell-based; conditions: for activity at 300 µM: dihydrophloretin 0.3 mM; for activity at 100 µM: dihydrophloretin 0.1 mM; for activity at 230 µM: dihydrophloretin 0.23 mM; for melanin production as percentage of control / % pigmentation: 5760 min
Method: Test method--In vitro melanocyte cell culture Pigment producing cells derived from a mammalian melanoma are grown in culture by standard methods. Preferred cell lines are B16 or S-91 cells, but other lines or primary mouse or human melanocytes can be used. Melanoma cells are grown in cell culture medium such as RPMI 1640 (GIBCO) supplemented with fetal calf serum and glutamine to approximately 1/3 confluence. The active is dissolved in culture medium, the pH adjusted as required and sterile filtered. The solution is then added to the cells. The cells are cultured for a further period of 4 days and the amount of melanin produced assayed by measuring the absorbance at 540 nm of the melanin released into the medium. The above procedure was used to assess the ability of compositions of (a) dihydrophloretin alone and (b) dihydrophloretin plus retinol to reduce the amount of melanin produced.

in vitro = assay type: cell-based, mammalian; conditions: melanoma cells
Method: (§1) Pigment producing cells derived from a mammalian melanoma are grown in culture by standard methods. Preferred cell lines are B16 or S-91 cells, but other lines or primary mouse or human melanocytes can be used.
(§2) Melanoma cells are grown in cell culture medium such as RPMI 1640 (GIBCO) supplemented with fetal calf serum and glutamine to approximately 1/3 confluence. The active is dissolved in culture medium, the pH adjusted as required and sterile filtered. The solution is then added to the cells.
(§3) Cell viability in the presence of the inhibitor is tested using neutral red (3-amino-7-dimethylamino-2-methyl phenazine hydrochloride) a water soluble vital dye which passes through the intact plasma membrane and becomes concentrated in lysosomes of viable cells. For any culture, the amount of dye taken up is proportional to the number of viable cells and agents that damage cell and lysosomal membranes inhibit dye incorporation.
(§4) The cells are incubated in 50 μg/ml neutral red solution for 3 hours at 37° C. in 5% CO2 in air. The solution is aspirated, the cells washed once in saline and to them added a solvent (50% H2 O, 49% ethanol, 1% acetic acid) to solubilise the dye. The amount of neutral red dye is quantified by measuring absorbance at 540 nm.
(§5) The above procedure was used to assess the ability of compositions of (a) dihydrophloretin alone and (b) dihydrophloretin plus retinol to reduce the amount of melanin produced.
(§6) The results for melanin production were calculated as percentages of control which contained medium alone. There was no effect on viability at the concentrations of actives reported.

Melanoma cells = test: in vitro; assay type: cell-based, mammalian
Method: as §1, §2, §3, §4, §5, §6

[2] = Melanocyte, 96 h, Table 4, trans retinol 0, read-out: melanin production as percentage of control
[3] = Melanocyte, 96 h, Table 5, retinol 0, n 3, read-out: % pigmentation

## Oc1ccc(CCC(O)c2c(O)cc(O)cc2O)cc1 (stereo not shown) [Dihydrophloretin, dihydrophloretin]
[1]; Melanocyte, 96 h, Table 3, dihydrophloretin 0.01 mM, 4 days, read-out: % of control melanin production
  activity at 10 µM: 100%
[1]; Melanocyte, 96 h, Table 3, dihydrophloretin 0.03 mM, 4 days, read-out: % of control melanin production
  activity at 30 µM: 99.8%
[1]; Melanocyte, 96 h, Table 3, 4 days, read-out: % of control melanin production
  activity at 300 µM: 57%
[1]; [2]
  activity at 100 µM: 98.1%
  activity at 230 µM: 109%
  activity at 300 µM: 109%
[1]; Melanocyte, 96 h, Table 4, dihydrophloretin 0.17 mM, trans retinol 0, read-out: melanin production as percentage of control
  activity at 170 µM: 109%
[1]; [3]
  activity at 100 µM: 99%
  activity at 230 µM: 104%
[1]; Melanocyte, 96 h, Table 5, retinol 0, n 4, read-out: % pigmentation
  activity at 300 µM: 94%
[1]; Table 4, dihydrophloretin 0.1 mM plus trans retinol 2.0 μm
  melanin production as percentage of control: 120.2 % of control
[1]; Table 4, dihydrophloretin 0.1 mM plus trans retinol 6.7 μm, *significantly less (P<0.05) than Control
  melanin production as percentage of control: 82.1 % of control
[1]; Table 4, dihydrophloretin 0.17 mM plus trans retinol 2.0 μm
  melanin production as percentage of control: 111.0 % of control
[1]; Table 4, dihydrophloretin 0.17 mM plus trans retinol 6.7 μm, *significantly less (P<0.05) than Control
  melanin production as percentage of control: 76.0 % of control
[1]; Table 4, dihydrophloretin 0.23 mM plus trans retinol 2.0 μm
  melanin production as percentage of control: 110.0 % of control
[1]; Table 4, dihydrophloretin 0.23 mM plus trans retinol 6.7 μm, *significantly less (P<0.05) than Control
  melanin production as percentage of control: 60.9 % of control
[1]; Table 4, dihydrophloretin 0.3 mM plus trans retinol 2.0 μm
  melanin production as percentage of control: 104.0 % of control
[1]; Table 4, dihydrophloretin 0.3 mM plus trans retinol 6.7 μm, *significantly less (P<0.05) than Control
  melanin production as percentage of control: 34.0 % of control
[1]; Table 5, dihydrophloretin 0.1 mM plus retinol 2.0 μM, n 1
  % pigmentation: 120%
[1]; Table 5, dihydrophloretin 0.1 mM plus retinol 6.7 μM, n 2
  % pigmentation: 86%
[1]; Table 5, dihydrophloretin 0.17 mM plus retinol 2.0 μM, n 1
  % pigmentation: 111%
[1]; Table 5, dihydrophloretin 0.17 mM plus retinol 6.7 μM, n 2
  % pigmentation: 73%
[1]; Table 5, dihydrophloretin 0.23 mM plus retinol 2.0 μM, n 1
  % pigmentation: 110%
[1]; Table 5, dihydrophloretin 0.23 mM plus retinol 6.7 μM, n 2
  % pigmentation: 55%
[1]; Table 5, dihydrophloretin 0.3 mM plus retinol 6.7 μM, n 1
  % pigmentation: 34%
In vitro
  viability at 100 µM: 100%
  viability at 170 µM: 100%
  viability at 230 µM: 100%
  viability at 300 µM: 100%
Melanoma cells
  cell viability: No adverse effects

## CC1=C(/C=C/C(C)=C/C=C/C(C)=C/CO)C(C)(C)CCC1 [Trans Retinol, retinol, reference compound]
[1]; Melanocyte, 96 h, Table 4, trans retinol 2.0 μm, dihydrophloretin 0, read-out: melanin production as percentage of control
  activity at 2 µM: 121%
[1]; Melanocyte, 96 h, Table 4, trans retinol 6.7 μm, dihydrophloretin 0, read-out: melanin production as percentage of control
  activity at 6.7 µM: 92.9%
[1]; Melanocyte, 96 h, Table 5, retinol 2.0 μM, dihydrophloretin 0.0, n 1, read-out: % pigmentation
  activity at 2 µM: 120%
[1]; Melanocyte, 96 h, Table 5, retinol 6.7 μM, dihydrophloretin 0.0, n 2, read-out: % pigmentation
  activity at 6.7 µM: 97%
In vitro
  viability at 2 µM: 100%
  viability at 6.7 µM: 100%
Melanoma cells
  cell viability: No adverse effects
